The results in this text go back to ChEMBL document CHEMBL1139752, “New rifabutin analogs: synthesis and biological activity against Mycobacterium tuberculosis” (2006).

The MIC is the least concentration at which growth counts as inhibited. A high value points to weaker potency.

Type in all cases: functional
In assay [1] the test system is Mycobacterium tuberculosis. As to the kind of experiment: Antimycobacterial activity against Mycobacterium tuberculosis H37 Rv ATCC 27294.
Assay [2] concerns Mycobacterium tuberculosis. As to the kind of experiment: Antimycobacterial activity against rifampicin and rifabutin sensitive Mycobacterium tuberculosis.
In assay [3] the test system is Mycobacterium avium. As to the kind of experiment: Antimycobacterial activity against Mycobacterium avium-intracellulare complex measured as susceptibility at 1 ug/mL.
Assay [4] deals with Mycobacterium kansasii. Briefly: Antimycobacterial activity against Mycobacterium kansasii measured as susceptibility at 1 ug/mL.

Structures are written as SMILES. ≈ marks a conversion by molar mass, not a printed value.

Take `CCCCN1[C@@H](c2ccccc2)C[C@@]2(C[C@H]1c1ccccc1)N=C1C(=C3NC(=O)/C(C)=C\C=C\[C@H](C)[C@H](O)[C@@H](C)[C@H](O)[C@H](C)[C@H](OC(C)=O)[C@H](C)[C@@H](OC)/C=C/O[C@@]4(C)Oc5c(C)c(O)c(c1c5C4=O)C3=O)N2`: the MIC in assay [1] and in assay [2] was 0.02 µg/mL (≈ 0.02 µM) in each case. Also, the Activity is 40% in assay [3] and 100% in assay [4].

`COc1ccc([C@@H]2C[C@]3(C[C@H](c4ccc(OC)cc4)N2)N=C2C(=C4NC(=O)/C(C)=C\C=C\[C@H](C)[C@H](O)[C@@H](C)[C@H](O)[C@H](C)[C@H](OC(C)=O)[C@H](C)[C@@H](OC)/C=C/O[C@@]5(C)Oc6c(C)c(O)c(c2c6C5=O)C4=O)N3)cc1`: the MIC in assay [1] and in assay [2] was 0.02 µg/mL (≈ 0.0199 µM) throughout. Further, the values for the Activity in assay [3] and in assay [4] were 60% and 100%, respectively.

`CO[C@H]1/C=C/O[C@@]2(C)Oc3c(C)c(O)c4c(c3C2=O)C2=N[C@@]3(C[C@@H](c5ccccc5)N[C@@H](c5ccccc5)C3)NC2=C(NC(=O)/C(C)=C\C=C\[C@H](C)[C@H](O)[C@@H](C)[C@H](O)[C@H](C)[C@H](OC(C)=O)[C@@H]1C)C4=O`: the MIC in assay [1] and in assay [2] was 0.02 µg/mL (≈ 0.0212 µM) throughout. Further, the Activity in assay [3] and in assay [4] was 100% throughout.

With `C=CCN1[C@@H](c2ccccc2)C[C@@]2(C[C@H]1c1ccccc1)N=C1C(=C3NC(=O)/C(C)=C\C=C\[C@H](C)[C@H](O)[C@@H](C)[C@H](O)[C@H](C)[C@H](OC(C)=O)[C@H](C)[C@@H](OC)/C=C/O[C@@]4(C)Oc5c(C)c(O)c(c1c5C4=O)C3=O)N2`, the MIC in assay [1] and in assay [2] was 0.02 µg/mL (≈ 0.0203 µM) in each case. Also, the results for the Activity entry in assay [3] and in assay [4] were “<=40%” and 100%, respectively.

In the case of `CO[C@H]1/C=C/O[C@@]2(C)Oc3c(C)c(O)c4c(c3C2=O)C2=N[C@]3(C[C@@H](c5ccccc5)N[C@@H](c5ccccc5)C3)NC2=C(NC(=O)/C(C)=C\C=C\[C@H](C)[C@H](O)[C@@H](C)[C@H](O)[C@H](C)[C@H](OC(C)=O)[C@@H]1C)C4=O`, the MIC in assay [1] and in assay [2] was 0.02 µg/mL (≈ 0.0212 µM) throughout. Also, the Activity in assay [3] and in assay [4] was 100% throughout.

In the case of `CO[C@H]1/C=C/O[C@@]2(C)Oc3c(C)c(O)c4c(c3C2=O)C2=N[C@@]3(C[C@@H](c5ccc(F)cc5)N[C@@H](c5ccc(F)cc5)C3)NC2=C(NC(=O)/C(C)=C\C=C\[C@H](C)[C@H](O)[C@@H](C)[C@H](O)[C@H](C)[C@H](OC(C)=O)[C@@H]1C)C4=O`, the MIC in assay [1] and in assay [2] was 0.02 µg/mL (≈ 0.0204 µM) in each case. Besides, the Activity in assay [3] and in assay [4] was 100% each time.

For the compound `C=CCCN1[C@@H](c2ccccc2)C[C@@]2(C[C@H]1c1ccccc1)N=C1C(=C3NC(=O)/C(C)=C\C=C\[C@H](C)[C@H](O)[C@@H](C)[C@H](O)[C@H](C)[C@H](OC(C)=O)[C@H](C)[C@@H](OC)/C=C/O[C@@]4(C)Oc5c(C)c(O)c(c1c5C4=O)C3=O)N2`, the MIC in assay [1] and in assay [2] was 0.02 µg/mL (≈ 0.0201 µM) each time. In addition, the Activity in assay [3] came out at 80%; in assay [4], 100%.

As for `CO[C@H]1/C=C/O[C@@]2(C)Oc3c(C)c(O)c4c(c3C2=O)C2=NC3(CCN(CC(C)C)CC3)NC2=C(NC(=O)/C(C)=C\C=C\[C@H](C)[C@H](O)[C@@H](C)[C@@H](O)[C@@H](C)[C@H](OC(C)=O)[C@@H]1C)C4=O` [RIFABUTIN], the MIC in assay [1] and in assay [2] was 0.02 µg/mL (≈ 0.0236 µM) throughout. For the same compound, the Activity in assay [3] came to 20%; in assay [4], 100%.

For `CO[C@H]1/C=C/O[C@@]2(C)Oc3c(C)c(O)c4c(O)c(c(/C=N/N5CCN(C)CC5)c(O)c4c3C2=O)NC(=O)/C(C)=C\C=C\[C@H](C)[C@H](O)[C@@H](C)[C@@H](O)[C@@H](C)[C@H](OC(C)=O)[C@@H]1C` [RIFAMPIN], the MIC in assay [1] and in assay [2] was 0.02 µg/mL (≈ 0.0243 µM) throughout. Further, the Activity came out at 0% in assay [3] and 100% in assay [4].
